In the NIST ThermoML archive (doi:10.1021/je2010038):
Numbers after ± are expanded uncertainties.

Legend:
[1] = for mass density: Liquid, Vibrating tube method; for surface tension liquid-gas: Pendant drop shape
[2] = xn = mol fraction of the nth substance listed; conditions: x2 = 0; for surface tension liquid-gas: Pendant drop shape; for mass density: Liquid, Vibrating tube method

NCCO [2-aminoethan-1-ol]
[1]
Conditions	mass density [kg/m3]
298.15 K, 101 kPa	1011.9 ± 0.7
303.15 K, 101 kPa	1008 ± 0.7
308.15 K, 101 kPa	1004 ± 0.7
313.15 K, 101 kPa	1000 ± 0.7
318.15 K, 101 kPa	996 ± 0.7
323.15 K, 101 kPa	992 ± 0.7
328.15 K, 101 kPa	988 ± 0.7
333.15 K, 101 kPa	983.9 ± 0.7
338.15 K, 101 kPa	979.8 ± 0.7
343.15 K, 101 kPa	975.8 ± 0.7
348.15 K, 101 kPa	971.6 ± 0.7
353.15 K, 101 kPa	967.5 ± 0.7
358.15 K, 101 kPa	963.4 ± 0.7
363.15 K, 101 kPa	959.2 ± 0.7
373.1 K, 700 kPa	950.9 ± 0.7
383.15 K, 700 kPa	942.3 ± 0.7
393.15 K, 700 kPa	933.5 ± 0.7
403.15 K, 700 kPa	924.7 ± 0.7
413.15 K, 700 kPa	915.7 ± 0.7
423.15 K, 700 kPa	906.4 ± 0.7

[1]
Conditions	surface tension liquid-gas [mN/m]
303.15 K	48.13 ± 0.63
313.15 K	46.66 ± 0.63
323.15 K	45.58 ± 0.62
333.15 K	44.63 ± 0.62

O [water] + NCCO
[2]
Conditions	surface tension liquid-gas [mN/m]
303.15 K	71.3 ± 0.76
313.15 K	69.55 ± 0.75
323.15 K	67.98 ± 0.74
333.15 K	66.16 ± 0.73

[2]
Conditions	mass density [kg/m3]
323.15 K, 101 kPa	988 ± 0.7
328.15 K, 101 kPa	985.7 ± 0.7
333.15 K, 101 kPa	983.2 ± 0.7
338.15 K, 101 kPa	980.5 ± 0.7
343.15 K, 101 kPa	977.7 ± 0.7
348.15 K, 101 kPa	974.8 ± 0.7
353.15 K, 101 kPa	971.8 ± 0.7
358.15 K, 101 kPa	968.6 ± 0.7
363.15 K, 101 kPa	965.3 ± 0.7
373.1 K, 700 kPa	958.6 ± 0.7
383.15 K, 700 kPa	951.2 ± 0.7
393.15 K, 700 kPa	943.4 ± 0.7
403.15 K, 700 kPa	935.1 ± 0.7
413.15 K, 700 kPa	926.3 ± 0.7
423.15 K, 700 kPa	917.1 ± 0.7
